Reference: ChEMBL document CHEMBL1201861, “Genomics of Drug Sensitity in Cancer screening data, Wellcome Trust Sanger Institute”

Tests used:
Assay in all cases: cells
[1] = tested on: COLO-829; format: functional, cell-based, Homo sapiens; details: Homo sapiens, COLO-829
Description: SANGER: Inhibition of human COLO-829 cell growth in a cell viability assay.

[2] = tested on: D-502MG; format: functional, cell-based, Homo sapiens; details: Homo sapiens, D-502MG
Description: SANGER: Inhibition of human D-502MG cell growth in a cell viability assay.

[3] = tested on: DEL; format: functional, cell-based, Homo sapiens; details: Homo sapiens, DEL;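 further: growth inhibition of the human DEL cell line, read out with a cell viability assay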
Description: SANGER: Inhibition of human DEL cell growth in a cell viability assay.

[4] = tested on: ES8; format: functional, cell-based, Homo sapiens; details: Homo sapiens, ES8;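 further: growth inhibition of human ES8 cells, read out with a cell viability assay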
Description: SANGER: Inhibition of human ES8 cell growth in a cell viability assay.

[5] = tested on: EW-16; format: functional, cell-based, Homo sapiens; details: Homo sapiens, EW-16;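 further: growth inhibition of human EW-16 cells, read out as cell viability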
Description: SANGER: Inhibition of human EW-16 cell growth in a cell viability assay.

[6] = tested on: EOL1; format: functional, cell-based, Homo sapiens; details: Homo sapiens, EOL1;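 further: growth inhibition of EoL-1 cells, read out by a cell viability assay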
Description: SANGER: Inhibition of human EoL-1-cell cell growth in a cell viability assay.

[7] = tested on: GB-1; format: functional, cell-based, Homo sapiens; details: Homo sapiens, GB-1;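 further: growth of GB-1 cells judged by a viability assay, IC50 marks the concentration inhibiting growth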
Description: SANGER: Inhibition of human GB-1 cell growth in a cell viability assay.

[8] = tested on: HCC2157; format: functional, cell-based, Homo sapiens; details: Homo sapiens, HCC2157;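 further: growth inhibition of the cancer cell line, read out as cell viability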
Description: SANGER: Inhibition of human HCC2157 cell growth in a cell viability assay.

[9] = tested on: HCC2218; format: functional, cell-based, Homo sapiens; details: Homo sapiens, HCC2218;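 further: cell viability assay read-out, with IC50 given as the concentration that inhibits growth of the cell line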
Description: SANGER: Inhibition of human HCC2218 cell growth in a cell viability assay.

[10] = tested on: HCE-T; format: functional, cell-based, Homo sapiens; details: Homo sapiens, HCE-T;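 further: cell viability assay read-out, reporting inhibition of HCE-T cell growth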
Description: SANGER: Inhibition of human HCE-T cell growth in a cell viability assay.

[11] = tested on: J-RT3-T3-5; format: functional, cell-based, Homo sapiens; details: Homo sapiens, J-RT3-T3-5;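 further: cell viability assay measuring growth inhibition of human J-RT3-T3-5 cells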
Description: SANGER: Inhibition of human J-RT3-T3-5 cell growth in a cell viability assay.

[12] = tested on: KARPAS-299; format: functional, cell-based, Homo sapiens; details: Homo sapiens, KARPAS-299
Description: SANGER: Inhibition of human KARPAS-299 cell growth in a cell viability assay.

[13] = tested on: KARPAS-45; format: functional, cell-based, Homo sapiens; details: Homo sapiens, KARPAS-45;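 further: inhibition of cell line growth, read out through a viability assay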
Description: SANGER: Inhibition of human KARPAS-45 cell growth in a cell viability assay.

[14] = tested on: KGN; format: functional, cell-based, Homo sapiens; details: Homo sapiens, KGN;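 further: growth inhibition of KGN cells, read out with a cell viability assay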
Description: SANGER: Inhibition of human KGN cell growth in a cell viability assay.

[15] = tested on: KLE; format: functional, cell-based; details: Homo sapiens;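 further: growth inhibition of human KLE cells, read out with a cell viability assay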
Description: SANGER: Inhibition of human KLE cell growth in a cell viability assay.

[16] = tested on: KM-H2; format: functional, cell-based, Homo sapiens; details: Homo sapiens, KM-H2;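 further: growth inhibition of KM-H2 cells, read out by a cell viability assay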
Description: SANGER: Inhibition of human KM-H2 cell growth in a cell viability assay.

[17] = tested on: KM12; format: functional, cell-based, Homo sapiens; details: Homo sapiens, KM12;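 further: KM12 cell growth inhibition, read out with a cell viability assay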
Description: SANGER: Inhibition of human KM12 cell growth in a cell viability assay.

[18] = tested on: KNS-42; format: functional, cell-based; details: Homo sapiens;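 further: growth inhibition of KNS-42 cells, read out with a cell viability assay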
Description: SANGER: Inhibition of human KNS-42 cell growth in a cell viability assay.

[19] = tested on: KU812 cell line; format: functional, cell-based, Homo sapiens; details: Homo sapiens, KU812;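 further: growth inhibition of KU812 cells, read out with a cell viability assay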
Description: SANGER: Inhibition of human KU812 cell growth in a cell viability assay.

[20] = tested on: L-428; format: functional, cell-based, Homo sapiens; details: Homo sapiens, L-428
Description: SANGER: Inhibition of human L-428 cell growth in a cell viability assay.

[21] = tested on: LB2241-RCC; format: functional, cell-based, Homo sapiens; details: Homo sapiens, LB2241-RCC;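 further: cell viability assay measuring how strongly the cultured human renal carcinoma line is prevented from growing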
Description: SANGER: Inhibition of human LB2241-RCC cell growth in a cell viability assay.

[22] = tested on: LB831-BLC; format: functional, cell-based, Homo sapiens; details: Homo sapiens, LB831-BLC;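 further: growth inhibition of LB831-BLC cells, read out with a cell viability assay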
Description: SANGER: Inhibition of human LB831-BLC cell growth in a cell viability assay.

[23] = tested on: LB996-RCC; format: functional, cell-based, Homo sapiens; details: Homo sapiens, LB996-RCC
Description: SANGER: Inhibition of human LB996-RCC cell growth in a cell viability assay.

[24] = tested on: LS-513; format: functional, cell-based, Homo sapiens; details: Homo sapiens, LS-513
Description: SANGER: Inhibition of human LS-513 cell growth in a cell viability assay.

[25] = tested on: MFM-223; format: functional, cell-based, Homo sapiens; details: Homo sapiens, MFM-223
Description: SANGER: Inhibition of human MFM-223 cell growth in a cell viability assay.

[26] = tested on: MZ7-mel; format: functional, cell-based, Homo sapiens; details: Homo sapiens, MZ7-mel;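 further: growth inhibition of human MZ7-mel cells, measured by a cell viability assay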
Description: SANGER: Inhibition of human MZ7-mel cell growth in a cell viability assay.

[27] = tested on: Mo; format: functional, cell-based, Homo sapiens; details: Homo sapiens, Mo
Description: SANGER: Inhibition of human Mo-T cell growth in a cell viability assay.

[28] = tested on: NCI-H1304; format: functional, cell-based, Homo sapiens; details: Homo sapiens, NCI-H1304;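 further: growth inhibition of the cancer cell line, measured in a cell viability assay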
Description: SANGER: Inhibition of human NCI-H1304 cell growth in a cell viability assay.

[29] = tested on: NCI-H1417; format: functional, cell-based, Homo sapiens; details: Homo sapiens, NCI-H1417;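 further: human NCI-H1417 cells, growth inhibition determined with a cell viability readout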
Description: SANGER: Inhibition of human NCI-H1417 cell growth in a cell viability assay.

[30] = tested on: NCI-H2171; format: functional, cell-based, Homo sapiens; details: Homo sapiens, NCI-H2171;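 further: growth inhibition of human NCI-H2171 cells, read out by a cell viability assay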
Description: SANGER: Inhibition of human NCI-H2171 cell growth in a cell viability assay.

[31] = tested on: SNU1; format: functional, cell-based, Homo sapiens; details: Homo sapiens, SNU1;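 further: growth inhibition of human NCI-SNU-1 cells, measured with a cell viability assay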
Description: SANGER: Inhibition of human NCI-SNU-1 cell growth in a cell viability assay.

[32] = tested on: NEC8; format: functional, cell-based, Homo sapiens; details: Homo sapiens, NEC8;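 further: growth inhibition of human NEC8 cells, read out by a cell viability assay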
Description: SANGER: Inhibition of human NEC8 cell growth in a cell viability assay.

[33] = tested on: OVCAR-4; format: functional, cell-based, Homo sapiens; details: Homo sapiens, OVCAR-4;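 further: growth inhibition of human OVCAR-4 cells, measured with a cell viability assay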
Description: SANGER: Inhibition of human OVCAR-4 cell growth in a cell viability assay.

[34] = tested on: RPMI-8866; format: functional, cell-based, Homo sapiens; details: Homo sapiens, RPMI-8866
Description: SANGER: Inhibition of human RPMI-8866 cell growth in a cell viability assay.

[35] = tested on: SCC-15; format: functional, cell-based, Homo sapiens; details: Homo sapiens, SCC-15;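 further: growth inhibition of SCC-15 cells, read out with a cell viability assay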
Description: SANGER: Inhibition of human SCC-15 cell growth in a cell viability assay.

[36] = tested on: SF-539; format: functional, cell-based, Homo sapiens; details: Homo sapiens, SF-539;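 further: Read-out is a cell viability assay, with IC50 reflecting inhibition of cell growth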
Description: SANGER: Inhibition of human SF539 cell growth in a cell viability assay.

[37] = tested on: SHP77; format: functional, cell-based, Homo sapiens, SHP-77; details: Homo sapiens, SHP77;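 further: growth inhibition of human SHP-77 cells measured by a cell viability assay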
Description: SANGER: Inhibition of human SHP-77 cell growth in a cell viability assay.

[38] = tested on: SK-MEL-1; format: functional, cell-based, Homo sapiens; details: Homo sapiens, SK-MEL-1;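 further: growth inhibition of human SK-MEL-1 cells, read out by a cell viability assay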
Description: SANGER: Inhibition of human SK-MEL-1 cell growth in a cell viability assay.

[39] = tested on: SK-N-FI; format: functional, cell-based, Homo sapiens; details: Homo sapiens, SK-N-FI;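 further: cell viability assay measuring growth inhibition of human SK-N-FI cells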
Description: SANGER: Inhibition of human SK-N-FI cell growth in a cell viability assay.

[40] = tested on: SK-UT-1; format: functional, cell-based, Homo sapiens; details: Homo sapiens, SK-UT-1;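 further: growth inhibition of SK-UT-1 cells, measured by a cell viability assay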
Description: SANGER: Inhibition of human SK-UT-1 cell growth in a cell viability assay.

[41] = tested on: SNU-C2B; format: functional, cell-based; details: Homo sapiens;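 further: cell viability readout used to measure compound-driven suppression of SNU-C2B cell proliferation, IC50 marking half-maximal growth inhibition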
Description: SANGER: Inhibition of human SNU-C2B cell growth in a cell viability assay.

[42] = tested on: SW872; format: functional, cell-based, Homo sapiens; details: Homo sapiens, SW872;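 further: growth inhibition of SW872 cells, read out by a viability assay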
Description: SANGER: Inhibition of human SW872 cell growth in a cell viability assay.

[43] = tested on: SW982; format: functional, cell-based; details: Homo sapiens;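 further: growth inhibition of SW982 cells, read out with a cell viability assay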
Description: SANGER: Inhibition of human SW982 cell growth in a cell viability assay.

[44] = tested on: 697; format: functional, cell-based, Homo sapiens; details: Homo sapiens
Description: SANGER: Inhibition of human 697 cell growth in a cell viability assay.

[45] = tested on: ATN-1; format: functional, cell-based, Homo sapiens; details: Homo sapiens, ATN-1;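 further: growth inhibition of human ATN-1 cells, read out with a cell viability assay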
Description: SANGER: Inhibition of human ATN-1 cell growth in a cell viability assay.

[46] = tested on: TE-5; format: functional, cell-based, Homo sapiens; details: Homo sapiens, TE-5;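 further: inhibition of cell growth, read out by a cell viability assay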
Description: SANGER: Inhibition of human TE-5 cell growth in a cell viability assay.

[47] = tested on: TGBC1TKB; format: functional, cell-based, Homo sapiens; details: Homo sapiens, TGBC1TKB;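 further: growth inhibition of TGBC1TKB cells, read out by a cell viability assay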
Description: SANGER: Inhibition of human TGBC1TKB cell growth in a cell viability assay.

[48] = tested on: CAS-1; format: functional, cell-based, Homo sapiens; details: Homo sapiens, CAS-1;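 further: growth inhibition of CAS-1 cells, measured with a cell viability assay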
Description: SANGER: Inhibition of human CAS-1 cell growth in a cell viability assay.

[49] = tested on: CCRF-CEM; format: functional, cell-based, Homo sapiens; details: Homo sapiens, CCRF-CEM;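 further: inhibition of CCRF-CEM cell growth, measured by a cell viability assay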
Description: SANGER: Inhibition of human CCRF-CEM cell growth in a cell viability assay.

[50] = tested on: COLO-684; format: functional, cell-based, Homo sapiens; details: Homo sapiens, COLO-684
Description: SANGER: Inhibition of human COLO-684 cell growth in a cell viability assay.

COC(=O)[C@H](CCSC)NC(=O)c1ccc(NC[C@@H](N)CS)cc1-c1ccccc1
IC50 [1]: > 1.02 µM
IC50 [2]: > 1.02 µM
IC50 [3]: > 1.02 µM
IC50 [4]: > 1.02 µM
IC50 [5]: > 1.02 µM
IC50 [6]: > 1.02 µM
IC50 [7]: > 1.02 µM
IC50 [8]: > 1.02 µM
IC50 [9]: > 1.02 µM
IC50 [10]: > 1.02 µM
IC50 [11]: > 1.02 µM
IC50 [12]: > 1.02 µM
IC50 [13]: > 1.02 µM
IC50 [14]: > 1.02 µM
IC50 [15]: > 1.02 µM
IC50 [16]: > 1.02 µM
IC50 [17]: > 1.02 µM
IC50 [18]: > 1.02 µM
IC50 [19]: > 1.02 µM
IC50 [20]: > 1.02 µM
IC50 [21]: > 1.02 µM
IC50 [22]: > 1.02 µM
IC50 [23]: > 1.02 µM
IC50 [24]: > 1.02 µM
IC50 [25]: > 1.02 µM
IC50 [26]: > 1.02 µM
IC50 [27]: > 1.02 µM
IC50 [28]: > 1.02 µM
IC50 [29]: > 1.02 µM
IC50 [30]: > 1.02 µM
IC50 [31]: > 1.02 µM
IC50 [32]: > 1.02 µM
IC50 [33]: > 1.02 µM
IC50 [34]: > 1.02 µM
IC50 [35]: > 1.02 µM
IC50 [36]: > 1.02 µM
IC50 [37]: > 1.02 µM
IC50 [38]: > 1.02 µM
IC50 [39]: > 1.02 µM
IC50 [40]: > 1.02 µM
IC50 [41]: > 1.02 µM
IC50 [42]: > 1.02 µM
IC50 [43]: > 1.02 µM
IC50 [44]: > 1.02 µM
IC50 [45]: > 1.02 µM
IC50 [46]: > 1.02 µM
IC50 [47]: > 1.02 µM
IC50 [48]: > 1.02 µM
IC50 [49]: > 1.02 µM
IC50 [50]: > 1.02 µM

OC[C@H](Cc1ccccc1)Nc1nc(Oc2ccc3c(c2)CCC3)nc2c1ncn2Cc1ccc(-c2ccccc2)cc1
IC50 [1]: > 10.2 µM
IC50 [2]: > 10.2 µM
IC50 [3]: > 10.2 µM
IC50 [4]: > 10.2 µM
IC50 [5]: 8.29 µM
IC50 [6]: 1.88 µM
IC50 [7]: 5.25 µM
IC50 [8]: > 10.2 µM
IC50 [9]: > 10.2 µM
IC50 [10]: > 10.2 µM
IC50 [11]: > 10.2 µM
IC50 [12]: > 10.2 µM
IC50 [13]: > 10.2 µM
IC50 [14]: > 10.2 µM
IC50 [15]: > 10.2 µM
IC50 [16]: > 10.2 µM
IC50 [17]: > 10.2 µM
IC50 [18]: > 10.2 µM
IC50 [19]: 0.637 µM
IC50 [20]: > 10.2 µM
IC50 [21]: > 10.2 µM
IC50 [22]: > 10.2 µM
IC50 [23]: > 10.2 µM
IC50 [24]: > 10.2 µM
IC50 [25]: > 10.2 µM
IC50 [26]: 8.89 µM
IC50 [27]: > 10.2 µM
IC50 [28]: > 10.2 µM
IC50 [29]: > 10.2 µM
IC50 [30]: > 10.2 µM
IC50 [31]: > 10.2 µM
IC50 [32]: > 10.2 µM
IC50 [33]: 8.19 µM
IC50 [34]: > 10.2 µM
IC50 [35]: > 10.2 µM
IC50 [36]: > 10.2 µM
IC50 [37]: > 10.2 µM
IC50 [38]: > 10.2 µM
IC50 [39]: > 10.2 µM
IC50 [40]: > 10.2 µM
IC50 [41]: > 10.2 µM
IC50 [42]: 10.2 µM
IC50 [43]: > 10.2 µM
IC50 [44]: 3.32 µM
IC50 [45]: > 10.2 µM
IC50 [46]: > 10.2 µM
IC50 [47]: > 10.2 µM
IC50 [48]: > 10.2 µM
IC50 [49]: 5.76 µM
IC50 [50]: > 10.2 µM
